pIC50: −log10 of the molar value. Strand notation (5' to 3'): a small letter for the sugar, then the base; units joined by * are phosphorothioate-linked, units joined directly phosphodiester-linked; [ ] holds rarer units or linkages, { } end groups; capitals alone tell only the bases. e = 2'-O-(2-methoxyethyl) (MOE); k = constrained ethyl (cEt); [5mC] = 5-methylcytosine; d = 2'-deoxy (DNA)
Tests used:
Type in all cases: cell-based
Yap1 mRNA [1] = test: Dose-dependent inhibition of human Yap1 in A-431 cells (Example 7, 10,000 cells per well, RTS36584); settings: free uptake
Procedure: Modified oligonucleotides described in the studies above were tested at various doses in A-431 cells. Cultured A-431 cells at a density of 10,000 cells per well were treated using free uptake with modified oligonucleotides diluted to concentrations described in the tables below. After approximately 48 hours, Yap1 mRNA levels were measured as previously described using the Human Yap1 primer-probe set RTS36584. Yap1 mRNA levels were normalized to total RNA content, as measured by RIBOGREEN®. Results are presented in the tables below as percent control of the amount of Yap1 mRNA relative to untreated control cells (% UTC). IC50s were calculated using a linear regression on a log/linear plot of the data in excel.

Yap1 mRNA [2] = test: Dose-dependent inhibition of human Yap1 in A-431 cells (Example 8, 10,000 cells per well, RTS4814); settings: free uptake, approximately 48 hours, RTS4814; for Yap1 mRNA, % UTC: A-431 cells, 10,000 cells per well; for pIC50: A-431 cells, linear regression on log/linear plot
In short: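 A-431 cells (10,000/well) dosed with modified oligonucleotides by free uptake; Yap1 mRNA measured ~48 h later with primer-probe set RTS4814, normalized to total RNA (RIBOGREEN). Values are % of untreated control; IC50 from linear regression on log/linear plot.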

Yap1 mRNA [3] = test: Dose-dependent inhibition of human Yap1 in SNU-449 cells (Example 9, RTS36584); settings: free uptake; for % UTC (Yap1 mRNA): approximately 48 hours; for pIC50: linear regression on a log/linear plot
In short: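 SNU-449 cells (10,000/well) took up modified oligonucleotides by free uptake at a range of doses for about 48 h. Yap1 mRNA was quantified with primer-probe set RTS36584, normalised to RIBOGREEN total RNA and expressed as % untreated control; IC50 from linear regression on log/linear plot.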

Yap1 mRNA [4] = test: Antisense inhibition of human Yap1 in A-431 cells by cEt gapmers, single dose (Example 3, RTS36584); settings: Table 28; Yap1 mRNA as percent of untreated control; 3-10-3 cEt gapmers targeting SEQ ID NO.: 1, and 2
In short: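 A-431 cells were treated by free uptake with 2,000 nM modified oligonucleotide (3-10-3 cEt gapmers, full phosphorothioate, 5-methylcytosines) for about 48 hours. Yap1 mRNA was quantified by real-time RT-PCR, normalized to RiboGreen total RNA, and expressed as % of untreated control; asterisked values mark oligonucleotides targeting the amplicon region.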

Row | Substance | % UTC (Yap1 mRNA) (Yap1 mRNA [3]; 31.3 nM) [% UTC] | % UTC (Yap1 mRNA) (Yap1 mRNA [3]; 125.0 nM) [% UTC] | % UTC (Yap1 mRNA) (Yap1 mRNA [3]; 500.0 nM) [% UTC] | % UTC (Yap1 mRNA) (Yap1 mRNA [3]; 2000.00 nM) [% UTC] | pIC50 (Yap1 mRNA [3]) | also measured
1 | 958813 (kT*kT*kA*d[5mC]*dA*dG*dA*dG*dA*dG*dA*dT*dT*k[5mC]*kA*kT; antisense) [compound 958813] |  |  |  |  |  | Yap1 mRNA, % UTC (Yap1 mRNA [1]; Table 60, 15.6 nM, A-431 cells 10,000 cells per well, 48 hours): 81 % UTC; Yap1 mRNA, % UTC (Yap1 mRNA [1]; Table 60, 62.5 nM, A-431 cells 10,000 cells per well, 48 hours): 79 % UTC; Yap1 mRNA, % UTC (Yap1 mRNA [1]; Table 60, 4000.00 nM, A-431 cells 10,000 cells per well, 48 hours): 29 % UTC; pIC50 (Yap1 mRNA [1]; Table 60, A-431 cells 10,000 cells per well): 6.70
2 | 958545 (kA*k[5mC]*kT*d[5mC]*dT*dA*dG*dT*dT*dA*d[5mC]*dA*dT*k[5mC]*kA*kT; antisense) [compound 958545] |  |  |  |  |  | Yap1 mRNA, % UTC (Yap1 mRNA [1]; 15.6 nM, A-431 cells, 10,000 cells per well, approximately 48 hours): 75 % UTC; Yap1 mRNA, % UTC (Yap1 mRNA [1]; 62.5 nM, A-431 cells, 10,000 cells per well, approximately 48 hours): 50 % UTC; Yap1 mRNA, % UTC (Yap1 mRNA [1]; 4000.00 nM, A-431 cells, 10,000 cells per well, approximately 48 hours): 8 % UTC; pIC50 (Yap1 mRNA [1]; A-431 cells, approximately 48 hours, linear regression on log/linear plot): 7.00
3 | 958506 (kG*k[5mC]*kA*dG*dA*dT*dA*dA*dT*d[5mC]*dG*dA*dG*kA*kT*kT; antisense) [compound 958506] |  |  |  |  |  | Yap1 mRNA, % UTC (Yap1 mRNA [1]; Table 57, 15.6 nM, A-431 cells 10,000 cells per well, 48 hours): 80 % UTC; Yap1 mRNA, % UTC (Yap1 mRNA [1]; Table 57, 62.5 nM, A-431 cells 10,000 cells per well, 48 hours): 55 % UTC; Yap1 mRNA, % UTC (Yap1 mRNA [1]; Table 57, 4000.00 nM, A-431 cells 10,000 cells per well, 48 hours): 10 % UTC; pIC50 (Yap1 mRNA [1]; Table 57, A-431 cells 10,000 cells per well): 7.00
4 | 1074464 (kT*kT*kA*dG*dA*dG*dT*dA*dT*dG*dT*dG*dG*k[5mC]*kA*kA) [compound 1074464] | 109 | 50 | 19 | 6 | 6.70 | Yap1 mRNA, % UTC (Yap1 mRNA [2]; 31.3 nM): 25 % UTC; Yap1 mRNA, % UTC (Yap1 mRNA [2]; 125.0 nM): 6 % UTC; Yap1 mRNA, % UTC (Yap1 mRNA [2]; 500.0 nM): 3 % UTC; Yap1 mRNA, % UTC (Yap1 mRNA [2]; 2000.00 nM): 3 % UTC; pIC50 (Yap1 mRNA [2]): > 7.70
5 | 1074798 (kG*k[5mC]*kT*dT*dT*dG*dG*dA*dA*dG*dA*dT*d[5mC]*kT*kG*kA) [compound 1074798] | 62 | 38 | 17 | 8 | 7.00 | Yap1 mRNA, % UTC (Yap1 mRNA [2]; 31.3 nM): 34 % UTC; Yap1 mRNA, % UTC (Yap1 mRNA [2]; 125.0 nM): 12 % UTC; Yap1 mRNA, % UTC (Yap1 mRNA [2]; 500.0 nM): 5 % UTC; Yap1 mRNA, % UTC (Yap1 mRNA [2]; 2000.00 nM): 6 % UTC; pIC50 (Yap1 mRNA [2]): > 7.70; YAP1 (% UTC) (Yap1 mRNA [4]): 4 % UTC
6 | 1198412 (kT*dT*dA*dG*dG*dA*dT*dG*d[5mC]*dA*dT*kG*eG*kT*eT*kT; antisense) [compound 1198412] | 73 | 54 | 33 | 15 | 6.70 | 
7 | 1198746 (kG*e[5mC]*kA*d[5mC]*dT*dT*dT*dT*dA*d[5mC]*dA*dT*eT*eA*kG*kG) [compound 1198746] | 49 | 24 | 9 | 3 | > 7.52 | 
8 | 1198295 (kT*kA*kG*dA*dG*dT*dA*dT*dG*dT*dG*dG*k[5mC]*eA*kA*eT; antisense) [compound 1198295] | 82 | 47 | 19 | 8 | 7.00 | 
9 | 1198528 (kT*kA*dA*dA*dG*dT*dG*dT*dA*dT*dG*eT*k[5mC]*eA*kG*eA; antisense) [compound 1198528] | 87 | 54 | 30 | 11 | 6.70 | 
10 | 1198895 (kG*kG*dA*dA*dA*dT*dT*dG*dT*d[5mC]*dT*k[5mC]*dA*kT*dG*k[5mC]; antisense) [compound 1198895] | 62 | 37 | 16 | 9 | 7.00 | 
11 | 1198719 (kG*eG*kA*dA*dA*dT*dT*dG*dT*d[5mC]*dT*d[5mC]*eA*eT*kG*k[5mC]; antisense) [compound 1198719] | 67 | 30 | 9 | 3 | 7.00 | 
